How the values were obtained:
Assay type in all cases: functional
Schistosoma mansoni [1] = system: Schistosoma mansoni; parameters: scale not given here
Schistosoma mansoni [2] = system: Schistosoma mansoni; parameters: scale not given here; remark: listed apart in the source
Schistosoma mansoni [3] = system: Schistosoma mansoni; parameters: scale not given here; remark: listed apart in the source
Schistosoma mansoni [4] = assay: MMV: Toxicity @ 5 uM to 4-5 Schistosoma mansoni adult males after 24 h on a scale of 0 (none) - 4 (most). Includes short descriptors of effects as judged visually (PMID:19597541). Only those Malaria box 'drug-like' cpds yielding the most severe phenotypes vs. somules were tested. Caffrey group UCSF.
Schistosoma mansoni [5] = assay: MMV: Toxicity @ 5 uM to 4-5 Schistosoma mansoni adult males after 48 h on a scale of 0 (none) - 4 (most). Includes short descriptors of effects as judged visually (PMID:19597541). Only those Malaria box 'drug-like' cpds yielding the most severe phenotypes vs. somules were tested. Caffrey group UCSF.
Schistosoma mansoni [6] = assay: MMV: Toxicity @ 5 uM to 4-5 Schistosoma mansoni adult males after 72 h on a scale of 0 (none) - 4 (most). Includes short descriptors of effects as judged visually (PMID:19597541). Only those Malaria box 'drug-like' cpds yielding the most severe phenotypes vs. somules were tested. Caffrey group UCSF.
Schistosoma mansoni [7] = assay: (§1) MMV: Motility assay. Percent change (relative to DMSO controls) @ 5 uM of movement of 4-5 Schistosoma mansoni adult males after 24 h as measured by the Consensus Voting Luminance Difference algorithm available on WormAssay (PMID:22303493). Occasional incongruence ocurrs between the motility scores and the visually adjudicated 'toxicity scores'. In these cases the 'toxicity score' should be prioritized. Only those Malaria box 'Drug-like' cpds yielding the most severe phenotypes vs. somules were tested. Caffrey group UCSF.
Schistosoma mansoni [8] = assay: as §1, with “48” for “24”
Schistosoma mansoni [9] = assay: as §1, with “72” for “24”

Compound	Toxicity (Schistosoma mansoni [1])	Toxicity (Schistosoma mansoni [2])	Toxicity (Schistosoma mansoni [3])	Toxicity (Schistosoma mansoni [4])	Toxicity (Schistosoma mansoni [5])	Toxicity (Schistosoma mansoni [6])	Motility (Schistosoma mansoni [7])	Motility (Schistosoma mansoni [8])	Motility (Schistosoma mansoni [9])
Oc1c(CN2CCN(c3ccccc3F)CC2)cc(Br)c2cccnc12	0	4	4	3	4	4	231	54.2	54.8
COc1ccc2nc(C)cc(Nc3ccc(Cl)cc3)c2c1	3	4	4	2	2	3	75.2	87.4	Slow, on sides, dark
O=C(Nc1ccc(F)c(Cl)c1)Nc1ccc(Cl)c(Cl)c1	3	3	4	2	4	4	3.2	3.2	2.6
COCCNCC(O)Cn1c2ccc(Cl)cc2c2cc(Cl)ccc21 (configuration not stated)	4	4	4	0	0	0	94	94	No effect
O=C(O)C(=O)O.Oc1ccc(Br)cc1CN1CCN(Cc2cccc(F)c2)CC1	1	1	1	1	1	1	233	202.5	Overactive
Cc1ccc(CN2CCC(C(=O)Nc3ccc(-c4cc5ccccc5[nH]4)cc3)CC2)o1	0	4	4	0	0	0	122.1	126.5	No effect
OC(CNC1CCCC1)Cn1c2ccccc2c2ccccc21 (configuration not stated)	1	4	4	0	0	0	No effect	83	No effect
CCN(CC)CCCNc1nc(-c2ccc(Cl)cc2)nc2ccccc12	2	4	4	0	0	0	86.7	99.5	56
CN(C)CCCNCc1ccc(-c2ccc(F)c(Cl)c2)o1.Cl	2	3	3	2	2	2	26.2	62.2	65.7
O=c1nc(C=Cc2ccc(Br)cc2)oc2ccccc12	2	2	2	0	0	0	132	98.7	No effect
COc1ccc(CCN2CCC(CN(C)Cc3cnn(-c4ccccc4)c3)CC2)cc1	2	1	1	0	0	0	33.8	114.8	70.2
O=C(Nc1nc(-c2ccccn2)cs1)c1ccccc1Br	2	2	4	0	0	0	69.2	80.4	88
COc1cc2c(cc1OC)C1=NNC(=O)C1=NC(C)(C)C2	0	4	4	0	0	0	140	120	No effect
CC(C)(C)CC(C)(C)NCC(O)COc1ccc2c(c1)CCC2.Cl (configuration not stated)	2	2	4	0	1	1	146	153	overactive
CC1CCN(Cc2ccc(NC(=O)c3cc4ccc5cccnc5c4[nH]3)cc2)CC1	0	4	4	0	0	0	138	97.2	110
CC(C)=CCN1CCC(C(=O)Nc2ccc(-c3nc4ccccc4[nH]3)cc2)CC1	1	1	1	0	0	0	139.1	93.7	119
Cl.OC(CNCc1ccccc1)Cn1c2ccccc2c2ccccc21 (configuration not stated)	4	4	4	0	0	0	38.1	49.4	No effect
CCn1nc(-c2ccc(C(=O)OC)cc2)nc2c(=O)n(C)c(=O)nc1-2	4	4	4	0	0	0	99.1	97	78.5
COc1ccc(CNC2CCN(c3ccc(NC(=O)c4cccc(Cl)c4)cc3)CC2)cc1OC	2	4	4	0	0	0	104.8	45.4	49
O=C(Nc1cccc(C(F)(F)F)c1)c1cc(Cl)ccc1O	4	4	4	4	4	4	0.5	0.4	0.7
Oc1ccccc1CN1CCC2(CCCN(Cc3ccccc3F)C2)C1 (configuration not stated)	2	3	3	1	1	1	175.4	150.6	overactive
CCN(CC)CCNc1ncnc2c1[nH]c1ccc(Br)cc12	4	4	4	0	0	0	No effect	119	No effect
Cc1cccc(-n2ncc3c(O)nc(-n4nc(C)cc4NC(=O)c4cc5ccccc5o4)nc32)c1	1	1	4	0	3	4	6	1	Slow, on sides, dark, tegument damage

Source: ChEMBL document CHEMBL2363022, “Malaria Box Schistosomiasis Screening Data” (2013)
